Measured values from ChEMBL document CHEMBL1201862, “PubChem BioAssay data set” (2004).
Active and inactive are the calls of the source.

Columns and labels:
[1] = biological target: Dual specificity protein kinase CLK1 (Homo sapiens, UniProt P49759); assay: inhibition of human CLK1 activity – biochemical, cherry-picked samples, selectivity assay for Dyrk1A inhibitor project, dose response (AID 588811)
[2] = biological target: Dual specificity tyrosine-phosphorylation-regulated kinase 1A (Rattus norvegicus, UniProt Q63470); format: biochemical, Homo sapiens
[3] = biological target: Melanin-concentrating hormone receptor 1 (Homo sapiens, UniProt Q99705); assay: Late-stage fluorescence-based counterscreen for antagonists of the G-protein coupled receptor 7 (GPR7): cell-based dose response assay to identify antagonists of the melanin-concentrating hormone receptor 1 (MCHR1) Set 6.; format: functional
[4] = biological target: T1, Neuropeptides B/W receptor type 1 (Homo sapiens, UniProt P48145); assay: human NPBW1 receptor blockade, IC50 – cell-based, fluorescence, dose response, set 6, late-stage follow-up (AID 588583); format: functional
T1 sequence (P48145 whole entry): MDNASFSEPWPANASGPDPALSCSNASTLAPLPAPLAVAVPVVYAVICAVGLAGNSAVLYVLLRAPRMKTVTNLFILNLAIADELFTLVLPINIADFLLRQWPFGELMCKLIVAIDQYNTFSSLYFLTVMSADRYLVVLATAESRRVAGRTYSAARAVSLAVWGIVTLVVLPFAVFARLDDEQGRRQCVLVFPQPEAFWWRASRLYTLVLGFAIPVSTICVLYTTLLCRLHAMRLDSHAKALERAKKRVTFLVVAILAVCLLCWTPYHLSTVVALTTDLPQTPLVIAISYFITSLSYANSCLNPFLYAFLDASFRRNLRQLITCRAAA

[5] = test system: HEK293; assay: HEK293T cell viability loss, resazurin readout – resazurin fluorescence, cytotoxicity control for NF-kB activator project, SAR follow-up (AID 493251); format: functional, cell-based; details: Homo sapiens
[6] = Luminescence Cell-Based Dose Response HTS to Identify Inhibitors of 5'UTR Stem-Loop Driven Prion Protein mRNA Translation in H4 Neuroglioblastoma Cells. [Related pubchem assays: 1827 (Project Summary), 1813 (Primary HTS)]; format: functional
[7] = biological target: T2, Microphthalmia-associated transcription factor (Homo sapiens, UniProt O75030); assay: reducers of TRPM1 reporter luminescence, concentration series – cell-based, SK-MEL-5, cherry-picked, set 3, MITF inhibitor project, dose response (AID 493073); format: functional;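 further: SK-MEL-5 melanoma cells with luciferase driven by the MITF target TRPM1 promoter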
T2 sequence (O75030 whole entry): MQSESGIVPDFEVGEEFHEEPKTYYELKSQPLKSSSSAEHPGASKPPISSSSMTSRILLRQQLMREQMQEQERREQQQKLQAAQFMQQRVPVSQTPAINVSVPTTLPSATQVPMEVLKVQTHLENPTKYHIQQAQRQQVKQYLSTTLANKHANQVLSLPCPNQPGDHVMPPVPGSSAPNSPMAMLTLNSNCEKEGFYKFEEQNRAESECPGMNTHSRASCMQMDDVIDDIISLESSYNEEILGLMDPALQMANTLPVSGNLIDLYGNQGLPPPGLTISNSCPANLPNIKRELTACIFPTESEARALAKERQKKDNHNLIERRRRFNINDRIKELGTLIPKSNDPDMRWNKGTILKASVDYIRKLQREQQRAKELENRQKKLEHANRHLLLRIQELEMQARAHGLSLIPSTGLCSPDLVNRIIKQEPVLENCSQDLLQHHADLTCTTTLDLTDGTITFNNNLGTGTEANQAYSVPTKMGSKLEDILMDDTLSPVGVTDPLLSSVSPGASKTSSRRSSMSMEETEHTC

[8] = luciferase reporter signal suppression in cells – H4 neuroglioma cells, luminescence, dose response (AID 1990); format: functional, cell-based
[9] = test system: Jurkat; assay: SAR Analysis of small molecule inhibitors of T-cell specific antigen receptor-induced NF-kB activation in a Jurkat cell line using a luminescence assay - Set 2. [Related pubchem assays (depositor defined):AID435003, AID435012, AID465]; format: functional, cell-based; details: Homo sapiens
[10] = alpha-synuclein stem-loop luciferase translation blockers – H4 neuroglioma cells, luminescence, confirmation (AID 1988); format: functional, cell-based
[11] = test system: HEK293; assay: SAR Analysis of small molecule inhibitors of T-cell specific antigen receptor-induced NF-kB activation in a HEK-293T cell line using a luminescence assay - Set 2. [Related pubchem assays (depositor defined):AID435003, AID435012, AID489026]; format: functional, cell-based; details: Homo sapiens
[12] = NIH3T3 cell viability loss – ATP luminescence, mouse fibroblasts, counter-screen, dose response (AID 2010); format: functional, cell-based;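 further: cells exposed to compound for about 90 hours before reading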
[13] = biological target: Beta-2 adrenergic receptor (Homo sapiens, UniProt P07550); assay: ADRB2 activation measured by internalization – cell-based, FAP fluorogen, flow cytometry, cherry pick 1, dose response (AID 588763); format: functional
[14] = Trypanosoma cruzi growth suppression in host cells – NIH3T3 host cells, beta-gal luminescence, confirmation (AID 2044); format: functional, cell-based;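 further: intracellular parasites grown in NIH/3T3 mouse fibroblasts as host cells; luminescent beta-galactosidase reporter signal from transgenic T. cruzi replicating inside host cells; inhibitors lower the luminescence signal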
[15] = biological target: Melanocortin receptor 4 (Homo sapiens, UniProt P32245); assay: inhibitors of MC4R cAMP signaling – cell-based, TR-FRET, biased antagonists, dose response (AID 602298); format: functional;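 further: antagonist potency against agonist-stimulated cAMP production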
[16] = cAMP pathway inhibition in counterscreen cell line – TR-FRET cAMP detection, counter-screen for MC4R biased antagonist project, dose response (AID 602305); format: functional, cell-based;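 further: U2OS cells stimulated with forskolin near its EC80 as the cAMP inducer; potency is for inhibition of forskolin-stimulated cAMP signaling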
[17] = biological target: Proto-oncogene tyrosine-protein kinase receptor Ret (Homo sapiens, UniProt P07949); format: functional;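 further: measured within a kinome-wide profiling panel, RET as the panel member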
[18] = biological target: Glyceraldehyde-3-phosphate dehydrogenase (Homo sapiens, UniProt P04406)
[19] = biological target: T3, Alkaline phosphatase, tissue-nonspecific isozyme (Homo sapiens, UniProt P05186); assay: potency against alkaline phosphatase TNAP – biochemical, luminescent, dose response, SAR follow-up (AID 1056)
T3 sequence (P05186 whole entry): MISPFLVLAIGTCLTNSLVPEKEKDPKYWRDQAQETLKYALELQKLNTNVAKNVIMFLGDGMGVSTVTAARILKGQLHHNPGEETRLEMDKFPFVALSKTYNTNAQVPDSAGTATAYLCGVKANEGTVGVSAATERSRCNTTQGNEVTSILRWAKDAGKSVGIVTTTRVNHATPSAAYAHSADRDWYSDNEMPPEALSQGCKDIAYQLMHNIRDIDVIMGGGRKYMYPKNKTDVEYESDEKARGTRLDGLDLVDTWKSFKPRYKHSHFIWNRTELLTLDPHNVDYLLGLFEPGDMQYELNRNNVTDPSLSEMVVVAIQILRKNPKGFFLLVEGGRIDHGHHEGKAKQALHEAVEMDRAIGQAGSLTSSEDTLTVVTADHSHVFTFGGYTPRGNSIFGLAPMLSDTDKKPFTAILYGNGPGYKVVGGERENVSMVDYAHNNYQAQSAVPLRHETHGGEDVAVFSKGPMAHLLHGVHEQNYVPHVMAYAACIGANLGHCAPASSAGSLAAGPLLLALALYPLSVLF

[20] = biological target: DNA dC->dU-editing enzyme APOBEC-3G (Homo sapiens, UniProt Q9HC16); assay: inhibition of APOBEC3G ssDNA deamination – biochemical, fluorescence, single-stranded DNA substrate, SAR follow-up (AID 602136); format: functional; details: read-out: IC50_Mean
[21] = biological target: DNA dC->dU-editing enzyme APOBEC-3A (Homo sapiens, UniProt P31941); assay: SAR analysis of small molecule inhibitors of APOBEC3A DNA Deaminase via a fluorescence-based single-stranded DNA deaminase assay.; format: functional; details: read-out: IC50_Mean
[22] = biological target: T4, Endoribonuclease toxin MazF (Escherichia coli K-12, UniProt P0AE70); assay: substrate-only fluorescence increase artefacts – biochemical, single-stranded RNase substrate, counter-screen for MazEF activator project, dose response (AID 588502); format: functional
T4 sequence (P0AE70 whole entry): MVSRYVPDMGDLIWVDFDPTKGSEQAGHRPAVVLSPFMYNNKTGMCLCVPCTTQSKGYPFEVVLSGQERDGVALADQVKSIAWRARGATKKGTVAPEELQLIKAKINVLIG

[23] = biological target: T4, Endoribonuclease toxin MazF; assay: activation of MazEF endoribonuclease cleavage – biochemical, fluorescence, single-stranded RNA substrate, uHTS hits, dose response (AID 588481); format: functional
[24] = blockade of melanocortin 4 receptor signaling – cell-based, plate reader, cherry pick, counter-screen for LGR2 antagonist project, dose response (AID 743444); format: functional;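 further: transfected HEK 293 cells stimulated with alpha-MSH peptide; potency of inhibitors of the alpha-MSH evoked signal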
[25] = blockers of bursicon-stimulated LGR2 cAMP reporter – cell-based, HEK293, CRE-luciferase reporter, cherry pick, set 2, dose response (AID 743343); format: functional;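 further: transfected cells were stimulated with diluted bursicon conditioned medium after compound addition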
[26] = A549 cell cytotoxicity, dose response, cytotoxicity control, plate reader, cherry-pick, antagonist series (AID 743412); format: functional, cell-based
[27] = biological target: Delta-type opioid receptor (Homo sapiens, UniProt P41143); assay: Counterscreen for agonists of heterodimerization of the mu 1 (OPRM1) and delta 1 (OPRD1) opioid receptors: Luminescence-based cell-based high throughput dose response assay to identify agonists of OPRD1 homodimerization. [Related pubchem assays (depositor defined):AID504326, AID504355, AID504692, AID504904, AID504905]; format: functional
[28] = biological target: Mu-type opioid receptor (Homo sapiens, UniProt P35372); assay: Counterscreen for agonists of heterodimerization of the mu 1 (OPRM1) and delta 1 (OPRD1) opioid receptors: Luminescence-based cell-based high throughput dose response assay to identify agonists of OPRM1 homodimerization.; format: functional;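 further: U2OS cells expressing OPRM1 and beta-arrestin as split beta-galactosidase partners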
[29] = biological target: 5-hydroxytryptamine receptor 5A (Homo sapiens, UniProt P47898); assay: Counterscreen for agonists of OPRM1-OPRD1 heterodimerization: luminescence-based cell-based high throughput dose response assay to identify agonists of 5-hydroxytryptamine (serotonin) 5A receptor (HTR5A). [Related pubchem assays (depositor defined):AID504326, AID504355, AID504692, AID504904, AID504905]; format: functional
[30] = toxicity toward HepG2 liver cells – cell-based, plate reader, cherry-pick, antagonist series, cytotoxicity control, dose response (AID 743416); format: functional
[31] = viability loss in HEK293 cells – cell-based, plate reader, cherry-picked samples, cytotoxicity control, dose response (AID 743446); format: functional

Chain of Dual specificity protein kinase CLK1 (P49759 whole entry): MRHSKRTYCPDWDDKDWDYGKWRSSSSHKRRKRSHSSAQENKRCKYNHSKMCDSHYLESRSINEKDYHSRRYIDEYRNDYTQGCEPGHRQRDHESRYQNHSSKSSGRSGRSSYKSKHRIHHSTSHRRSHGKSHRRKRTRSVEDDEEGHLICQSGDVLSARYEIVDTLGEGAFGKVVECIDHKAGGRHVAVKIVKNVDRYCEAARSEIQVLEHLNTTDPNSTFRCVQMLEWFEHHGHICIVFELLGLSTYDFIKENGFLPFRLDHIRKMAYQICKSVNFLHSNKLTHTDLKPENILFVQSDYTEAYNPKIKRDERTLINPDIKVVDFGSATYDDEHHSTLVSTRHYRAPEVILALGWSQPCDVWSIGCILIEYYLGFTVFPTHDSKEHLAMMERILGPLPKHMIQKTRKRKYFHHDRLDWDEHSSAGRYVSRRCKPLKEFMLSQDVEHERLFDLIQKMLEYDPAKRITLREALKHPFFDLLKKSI
Chain of Proto-oncogene tyrosine-protein kinase receptor Ret (P07949 whole entry): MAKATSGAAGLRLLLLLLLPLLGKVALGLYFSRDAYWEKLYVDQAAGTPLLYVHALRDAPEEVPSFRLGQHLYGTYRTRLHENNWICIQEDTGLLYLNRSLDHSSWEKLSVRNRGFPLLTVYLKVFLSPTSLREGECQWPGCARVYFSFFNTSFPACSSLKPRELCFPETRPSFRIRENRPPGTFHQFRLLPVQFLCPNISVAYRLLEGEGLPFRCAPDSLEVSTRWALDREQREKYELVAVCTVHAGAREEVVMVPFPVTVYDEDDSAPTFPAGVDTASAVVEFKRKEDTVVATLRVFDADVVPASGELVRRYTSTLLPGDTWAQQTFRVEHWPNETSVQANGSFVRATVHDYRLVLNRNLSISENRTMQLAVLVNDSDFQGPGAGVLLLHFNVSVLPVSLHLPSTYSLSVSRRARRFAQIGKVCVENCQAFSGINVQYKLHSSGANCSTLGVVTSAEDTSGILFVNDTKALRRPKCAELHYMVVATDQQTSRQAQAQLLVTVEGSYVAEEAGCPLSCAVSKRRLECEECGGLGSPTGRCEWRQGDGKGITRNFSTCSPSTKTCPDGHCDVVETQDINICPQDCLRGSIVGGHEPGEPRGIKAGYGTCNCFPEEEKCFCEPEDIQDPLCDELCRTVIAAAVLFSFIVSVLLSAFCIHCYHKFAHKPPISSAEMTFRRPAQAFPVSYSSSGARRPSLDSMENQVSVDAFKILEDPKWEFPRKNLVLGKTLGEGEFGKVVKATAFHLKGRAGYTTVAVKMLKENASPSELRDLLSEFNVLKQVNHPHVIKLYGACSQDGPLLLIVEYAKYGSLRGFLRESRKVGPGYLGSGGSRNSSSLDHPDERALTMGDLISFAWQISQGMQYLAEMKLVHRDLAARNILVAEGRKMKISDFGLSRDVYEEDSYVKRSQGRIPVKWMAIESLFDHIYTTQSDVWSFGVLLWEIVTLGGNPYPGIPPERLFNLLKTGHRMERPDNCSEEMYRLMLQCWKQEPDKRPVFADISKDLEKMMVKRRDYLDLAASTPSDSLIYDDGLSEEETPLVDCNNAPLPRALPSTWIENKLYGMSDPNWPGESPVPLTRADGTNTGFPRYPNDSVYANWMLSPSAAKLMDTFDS
Chain of Delta-type opioid receptor (P41143 whole entry): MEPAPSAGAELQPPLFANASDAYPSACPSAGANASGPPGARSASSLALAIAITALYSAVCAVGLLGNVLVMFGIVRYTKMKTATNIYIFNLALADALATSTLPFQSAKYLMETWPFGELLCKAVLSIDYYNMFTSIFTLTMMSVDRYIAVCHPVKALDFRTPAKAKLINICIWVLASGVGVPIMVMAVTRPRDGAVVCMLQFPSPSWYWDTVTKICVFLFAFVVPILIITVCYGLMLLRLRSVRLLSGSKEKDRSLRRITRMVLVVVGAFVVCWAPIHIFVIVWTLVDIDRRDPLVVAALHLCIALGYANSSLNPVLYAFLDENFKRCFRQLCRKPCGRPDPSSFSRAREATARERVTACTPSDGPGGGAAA
Chain of 5-hydroxytryptamine receptor 5A (P47898 whole entry): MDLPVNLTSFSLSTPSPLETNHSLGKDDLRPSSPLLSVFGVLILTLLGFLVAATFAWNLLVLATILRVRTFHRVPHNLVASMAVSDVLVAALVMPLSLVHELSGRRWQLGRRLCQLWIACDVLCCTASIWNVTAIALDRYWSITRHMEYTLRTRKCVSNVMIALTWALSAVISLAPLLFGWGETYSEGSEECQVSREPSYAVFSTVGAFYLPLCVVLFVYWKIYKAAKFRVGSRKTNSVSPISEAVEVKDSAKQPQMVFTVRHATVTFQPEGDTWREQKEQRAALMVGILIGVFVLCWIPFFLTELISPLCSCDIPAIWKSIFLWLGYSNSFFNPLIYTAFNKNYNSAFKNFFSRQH
Chain of Glyceraldehyde-3-phosphate dehydrogenase (P04406 whole entry): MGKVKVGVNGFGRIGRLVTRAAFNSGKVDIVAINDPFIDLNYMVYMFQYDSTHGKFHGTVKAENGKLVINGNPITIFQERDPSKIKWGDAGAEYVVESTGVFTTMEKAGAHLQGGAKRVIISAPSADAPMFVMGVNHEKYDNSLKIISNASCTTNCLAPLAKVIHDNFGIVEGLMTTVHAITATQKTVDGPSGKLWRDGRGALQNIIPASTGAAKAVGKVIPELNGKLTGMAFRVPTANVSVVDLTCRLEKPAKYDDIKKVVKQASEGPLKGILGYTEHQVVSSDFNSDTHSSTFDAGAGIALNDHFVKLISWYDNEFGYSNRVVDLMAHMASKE
Chain of Melanocortin receptor 4 (P32245 whole entry): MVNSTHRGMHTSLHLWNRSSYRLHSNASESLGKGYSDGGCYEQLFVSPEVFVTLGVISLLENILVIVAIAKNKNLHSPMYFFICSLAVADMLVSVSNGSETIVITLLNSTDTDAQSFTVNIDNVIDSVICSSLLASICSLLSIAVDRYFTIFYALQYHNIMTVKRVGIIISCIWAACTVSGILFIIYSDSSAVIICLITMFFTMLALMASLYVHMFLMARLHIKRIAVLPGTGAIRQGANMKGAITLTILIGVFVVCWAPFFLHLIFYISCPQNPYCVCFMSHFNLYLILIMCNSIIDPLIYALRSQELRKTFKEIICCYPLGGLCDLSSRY
Chain of DNA dC->dU-editing enzyme APOBEC-3G (Q9HC16 whole entry): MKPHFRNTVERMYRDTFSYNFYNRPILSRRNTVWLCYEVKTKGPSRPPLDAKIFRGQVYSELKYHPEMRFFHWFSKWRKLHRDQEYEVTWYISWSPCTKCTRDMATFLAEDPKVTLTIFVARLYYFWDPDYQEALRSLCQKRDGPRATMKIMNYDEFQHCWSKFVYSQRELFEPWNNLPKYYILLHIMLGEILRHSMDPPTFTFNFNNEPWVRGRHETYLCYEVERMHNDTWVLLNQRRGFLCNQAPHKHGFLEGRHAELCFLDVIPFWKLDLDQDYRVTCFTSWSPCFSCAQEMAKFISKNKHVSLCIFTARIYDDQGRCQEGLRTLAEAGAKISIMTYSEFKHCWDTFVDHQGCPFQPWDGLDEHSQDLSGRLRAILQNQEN
Chain of DNA dC->dU-editing enzyme APOBEC-3A (P31941 whole entry): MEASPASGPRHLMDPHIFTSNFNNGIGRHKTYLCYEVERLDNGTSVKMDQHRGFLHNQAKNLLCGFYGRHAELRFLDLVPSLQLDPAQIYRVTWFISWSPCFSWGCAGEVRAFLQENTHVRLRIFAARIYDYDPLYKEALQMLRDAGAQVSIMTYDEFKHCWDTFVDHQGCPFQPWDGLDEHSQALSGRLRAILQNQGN
Chain of Melanin-concentrating hormone receptor 1 (Q99705 whole entry): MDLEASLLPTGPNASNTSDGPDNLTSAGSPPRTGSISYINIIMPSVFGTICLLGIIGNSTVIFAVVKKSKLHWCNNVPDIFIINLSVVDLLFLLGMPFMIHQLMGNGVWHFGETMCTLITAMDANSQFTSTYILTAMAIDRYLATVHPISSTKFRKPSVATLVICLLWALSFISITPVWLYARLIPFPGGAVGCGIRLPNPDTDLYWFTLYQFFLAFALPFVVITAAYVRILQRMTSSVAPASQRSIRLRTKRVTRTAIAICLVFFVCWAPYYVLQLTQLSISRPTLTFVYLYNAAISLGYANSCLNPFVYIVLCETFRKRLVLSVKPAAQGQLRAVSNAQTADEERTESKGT
Chain of Beta-2 adrenergic receptor (P07550 whole entry): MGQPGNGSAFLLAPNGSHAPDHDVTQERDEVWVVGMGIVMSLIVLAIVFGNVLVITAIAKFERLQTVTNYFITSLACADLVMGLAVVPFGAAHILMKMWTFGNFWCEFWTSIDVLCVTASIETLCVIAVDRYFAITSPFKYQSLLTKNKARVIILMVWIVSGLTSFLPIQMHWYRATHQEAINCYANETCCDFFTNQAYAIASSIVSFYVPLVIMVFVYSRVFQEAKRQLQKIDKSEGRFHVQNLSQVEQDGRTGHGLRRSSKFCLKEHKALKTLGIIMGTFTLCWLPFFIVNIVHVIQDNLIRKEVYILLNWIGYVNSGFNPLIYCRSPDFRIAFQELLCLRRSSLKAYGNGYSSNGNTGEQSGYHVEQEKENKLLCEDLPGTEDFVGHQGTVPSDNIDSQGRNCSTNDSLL
Chain of Mu-type opioid receptor (P35372 whole entry): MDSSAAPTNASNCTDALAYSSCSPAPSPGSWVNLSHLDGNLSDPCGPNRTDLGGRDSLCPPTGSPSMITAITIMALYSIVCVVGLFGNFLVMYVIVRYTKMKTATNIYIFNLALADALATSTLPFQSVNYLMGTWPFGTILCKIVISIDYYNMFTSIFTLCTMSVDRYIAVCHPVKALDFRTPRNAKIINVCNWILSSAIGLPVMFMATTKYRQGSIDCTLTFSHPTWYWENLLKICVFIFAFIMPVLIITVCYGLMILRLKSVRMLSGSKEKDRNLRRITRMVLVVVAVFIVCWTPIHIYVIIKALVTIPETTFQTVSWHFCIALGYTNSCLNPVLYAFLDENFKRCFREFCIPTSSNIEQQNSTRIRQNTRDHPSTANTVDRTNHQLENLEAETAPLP

COc1cccc(NC(=O)Nc2ccc3c(c2)N(C)C(=O)CS3)c1
AC50 [1]: 9.67 µM (active)
AC50 [2]: 5.3 µM (active)

CCOc1ccc(Oc2c(Cl)cnn(Cc3cccc4ccccc34)c2=S)cc1
IC50 [3]: 1.51 µM (active)
IC50 [4]: 1.51 µM (active)

CCN1CCN(c2ccc(NC(=O)c3ccc([N+](=O)[O-])o3)cc2Cl)CC1
IC50 [5]: 49.2 µM (inactive)
EC50 [6]: > 120 µM (not active)
AC50 [7]: 9.54 µM (active)
EC50 [8]: > 120 µM (not active)
IC50 [9]: 15.8 µM (active)
EC50 [10]: 8.46 µM (active)
IC50 [11]: 16.5 µM (active)
EC50 [12]: 4.34 µM (active)
EC50 [13]: 6.22 µM (active)
EC50 [14]: > 30 µM (not active)

O=C(COC(=O)CNS(=O)(=O)c1cccc(Br)c1)Nc1ccccc1Sc1ccccc1
IC50 [15]: 8.42 µM (active)
IC50 [16]: > 64.6 µM (inactive)

CC(SCC1CCC2CC1C2(C)C)C(N)=O (stereo not drawn)
Ki [17]: 100 µM (active)

COc1ccc2c(c1)CCc1c-2n[nH]c1C(=O)O
IC50 [18]: > 10 µM (inconclusive)
IC50 [19]: 3.71 µM (active)
AC50 [1]: 16.9 µM (active)
AC50 [2]: 7.28 µM (active)

Cn1cccc1/C=C(/C#N)C(=O)Nc1cc(Cl)ccc1N1CCOCC1
IC50 [20]: > 99 µM (inactive)
IC50 [21]: > 99 µM (inactive)

CN(C)c1ccc(/C=N/N(CCC#N)C2=NS(=O)(=O)c3ccccc32)cc1
EC50 [22]: 42.5 µM (inactive)
EC50 [23]: > 99 µM (inactive)

CC(C)n1ncc2c(C(=O)Nc3cccc(C#N)c3)cc(C3CC3)nc21
AC50 [24]: 789 nM (active)
AC50 [25]: 1.46 µM (active)
AC50 [26]: 39.1 µM (active)
EC50 [27]: > 92.5 µM (inactive)
EC50 [28]: 18 µM (inactive)
EC50 [29]: > 92.5 µM (inactive)
AC50 [30]: 21.8 µM (active)
AC50 [31]: 24.3 µM (active)
